Data: patent US10342233B2, “Control of aquatic weeds using combinations of 4-amino-3-chloro-6-(4-chloro-2-fluoro-3-methoxyphenyl)pyridine-2-carboxylic acids and other aquatic herbicides” (Dow AgroSciences LLC, priority 2015, dated 2019)
Read-outs that look alike come from different tables or passages of the source.

Experiments:
Type in all cases: in vivo
[1] = tested on: Echinochloa crus-galli (L.) P. Beauv. (barnyardgrass); conditions: ECHCG 2-5 lf (30% submerged), 20 DAA
Experimental: (§1) Weed seeds, nutlets, or vegetative cuttings of the desired test plant species were planted in puddled soil (mud) prepared by mixing a shredded, non-sterilized mineral soil (50.5 percent silt, 25.5 percent clay, and 24 percent sand, with a pH of approximately 7.6 and an organic matter content of approximately 2.9 percent) and water at a 1:1 volumetric ratio. The prepared mud was dispensed in 365 milliliter (mL) aliquots into 480 mL non-perforated plastic pots with a surface area of 86.59 square centimeters (cm^2) leaving a headspace of 3 centimeters (cm) in each pot. Mud was allowed to dry overnight prior to planting or transplanting.
(§2) The aquatic environment was created by filling the 3 cm headspace of the pots with water. […] The plants were grown for 4-20 days in a greenhouse with an approximate 14 hour (h) photoperiod which was maintained at about 29° C. during the day and about 26° C. during the night. Nutrients were added as Osmocote® (19:6:12, N:P:K+minor nutrients) at 2 grams (g) per 480 mL pot. Water was added on a regular basis to maintain the paddy flood, and supplemental lighting was provided with overhead metal halide 1000-Watt lamps as necessary. The plants were employed for testing when they reached the second through fifth true leaf stage or 5th node stage.
(§3) Treatments consisted of the benzyl ester of 4-amino-3-chloro-5-fluoro-6-(4-chloro-2-fluoro-3-methoxy-phenyl)pyridine-2-carboxylic acid (Compound II) formulated as a suspension concentrate (SC) and various herbicidal components alone and in combination.
(§4) Measured amounts of formulated compounds were placed in individual glass vials and were dissolved in an aliquot of an aqueous mixture containing 1.25% volume per volume (v/v) Agri-Dex® crop oil concentrate. A stock solution was prepared for each treatment concentration. Applications were made by injecting an appropriate amount of the application solution into the aqueous layer of the flooded greenhouse pot. Control plants were treated in the same manner with the solvent blank.
(§5) The treated plants and control plants were placed in a greenhouse as described above and water was added as needed to maintain a flood in the pot. After approximately 20 days after application (DAA), the condition of the test plants, compared with that of the untreated plants, was determined visually and scored on a scale of 0 to 100 percent where 0 corresponds to no injury or growth reduction and 100 corresponds to complete kill.

[2] = tested on: Ischaemum rugosum Salisb. (saramollagrass)
Experimental: as §1, §2, §3, §4, §5

[3] = tested on: Leptochloa chinensis (L.) Nees (Chinese sprangletop); conditions: LEFCH 5 lf (30% submerged), 20 DAA
Experimental: as §1, §2, §3, §4, §5

[4] = tested on: Cyperus esculentus L. (yellow nutsedge); experiment: Greenhouse in-water herbicidal activity, flooded pot system; conditions: CYPES 4 lf (30% submerged), 20 DAA
Experimental: as §1, §2, §3, §4, §5

[5] = tested on: Alternanthera philoxeroides (Mart.) Griseb. (alligatorweed); experiment: as above; conditions: ALRPH 5 node, 20 DAA
Experimental: as §1, §2, §3, §4, §5

[6] = tested on: Echinochloa oryzoides (Ard.) Fritsch (early watergrass); experiment: as above; conditions: ECHOR 2-3 lf (20-30% submerged), 20 DAA
Experimental: as §1
The aquatic environment was created by filling the 3 cm headspace of the pots with water. When required to ensure good germination and healthy plants, a fungicide treatment and/or other chemical or physical treatment was applied. The plants were grown for 4-20 days in a greenhouse with an approximate 14 hour (h) photoperiod which was maintained at about 29° C. during the day and about 26° C. during the night. Nutrients were added as Osmocote® (19:6:12, N:P:K+minor nutrients) at 2 grams (g) per 480 mL pot. […]
Treatment requirements for each compound or herbicidal component were calculated based upon the rates being tested, the concentration of active ingredient or acid equivalent in the formulation, and a treatment application volume of 2 mL per compound per pot.
Measured amounts of formulated compounds were placed in individual glass vials and were dissolved in an aliquot of an aqueous mixture containing 1.25% volume per volume (v/v) Agri-Dex® crop oil concentrate. […]
as §5

[7] = 2100 ppb (elemental copper basis) in water
[8] = 4200 ppb (elemental copper basis) in water
[9] = 8300 ppb (elemental copper basis) in water

For `COc1c(Cl)ccc(-c2nc(C(=O)OCc3ccccc3)c(Cl)c(N)c2F)c1F` [Compound II, benzyl 4-amino-3-chloro-5-fluoro-6-(4-chloro-2-fluoro-3-methoxyphenyl)pyridine-2-carboxylate], the “Compound II Mean % Weed Control” value ([1]; 33.25 ppb in water) was 65.0%, the “Compound II Mean % Weed Control” value ([2]; ISCRU 2-3 lf (30-50% submerged), 66.6 ppb in water, 20 DAA) was 75.0% and the “Compound II Mean % Weed Control” value ([2]; ISCRU 2-3 lf (30-50% submerged), 133.4 ppb in water, 20 DAA) was 85.0%. For the same molecule, the “Compound II Mean % Weed Control” value ([3]; 66.6 ppb in water) was 20.0%, the “Compound II Mean % Weed Control” value ([4]; 33.25 ppb in water) was 18.0% and the “Compound II Mean % Weed Control” value ([4]; 33.3 ppb in water) was 18.0%. For the same molecule, the “Compound II Mean % Weed Control” value ([4]; 66.6 ppb in water) was 68.0%, the “Compound II Mean % Weed Control” value ([5]; 33.25 ppb in water) was 55.0% and the “Compound II Mean % Weed Control” value ([5]; 33.3 ppb in water) was 55.0%. The “Compound II Mean % Weed Control” value ([5]; 66.6 ppb in water) was 68.0%, the “Compound II Mean % Weed Control” value ([6]; 33.3 ppb in water) was 25.0% and the “Compound II Mean % Weed Control” value ([6]; 133.4 ppb in water) was 78.0%.
With `c1cc[n+]2c(c1)-c1cccc[n+]1CC2` [Diquat Dibromide, 9,10-dihydro-8a,10a-diazoniaphenanthrene] the “Diquat Dibromide Mean % Weed Control” value ([2]; in vivo) was 0.0% and the “Diquat Dibromide Mean % Weed Control” value ([6]; 900 ppb in water) was 0.0%.
With `O=C(O)C1C2CCC(O2)C1C(=O)O` (centres unmarked) [Endothal, 7-oxabicyclo[2.2.1]heptane-2,3-dicarboxylic acid] the “Endothal Mean % Weed Control” value ([2]; ISCRU 2-3 lf (30-50% submerged), 1120 ppb in water, 20 DAA) was 0.0%, the “Endothal Mean % Weed Control” value ([2]; ISCRU 2-3 lf (30-50% submerged), 4480 ppb in water, 20 DAA) was 0.0% and the “Endothal Mean % Weed Control” value ([4]; 1120 ppb in water) was 0.0%. The “Endothal Mean % Weed Control” value ([4]; 4480 ppb in water) was 0.0%, the “Endothal Mean % Weed Control” value ([5]; 1120 ppb in water) was 0.0% and the “Endothal Mean % Weed Control” value ([5]; 4480 ppb in water) was 0.0%. For the same molecule, the “Endothal Mean % Weed Control” value ([5]; 8960 ppb in water) was 0.0%.
`Cn1cc(-c2ccccc2)c(=O)c(-c2cccc(C(F)(F)F)c2)c1` [Fluridone, 1-methyl-3-phenyl-5-(α,α,α-trifluoro-m-tolyl)-4-pyridone] was tested, and the “Fluridone Mean % Weed Control” value ([2]; ISCRU 2-3 lf (30-50% submerged), 10 ppb in water, 20 DAA) was 10.0%, the “Fluridone Mean % Weed Control” value ([2]; ISCRU 2-3 lf (30-50% submerged), 45 ppb in water, 20 DAA) was 10.0% and the “Fluridone Mean % Weed Control” value ([4]; 10 ppb in water) was 0.0%. For the same molecule, the “Fluridone Mean % Weed Control” value ([4]; 45 ppb in water) was 0.0%, the “Fluridone Mean % Weed Control” value ([4]; 90 ppb in water) was 0.0% and the “Fluridone Mean % Weed Control” value ([5]; 180 ppb in water) was 65.0%.
copper(II) sulfate [Copper Sulfate] was tested, and the “Copper Sulfate Mean % Weed Control” value ([4]; 300 ppb in water) was 0.0%, the “Copper Sulfate Mean % Weed Control” value ([4]; 600 ppb in water) was 0.0% and the “Copper Sulfate Mean % Weed Control” value ([5]; 300 ppb in water) was 0.0%. For the same molecule, the “Copper Sulfate Mean % Weed Control” value ([5]; 600 ppb in water) was 0.0% and the “Copper Sulfate Mean % Weed Control” value ([5]; 900 ppb in water) was 0.0%.
In the case of mixed copper ethanolamine complex, the “Mixed Copper Ethanolamine Complex Mean % Weed Control” value [1, 7] is reported as 0.0%, the “Mixed Copper Ethanolamine Complex Mean % Weed Control” value [1, 8] is reported as 0.0% and the “Mixed Copper Ethanolamine Complex Mean % Weed Control” value [1, 9] is reported as 0.0%. The “Mixed Copper Ethanolamine Complex Mean % Weed Control” value ([2]; ISCRU 2-3 lf (30-50% submerged), 8300 ppb (elemental copper basis) in water, 20 DAA) was 0.0%, the “Mixed Copper Ethanolamine Complex Mean % Weed Control” value [3, 8] was 0.0% and the “Mixed Copper Ethanolamine Complex Mean % Weed Control” value [3, 9] was 0.0%. For the same molecule, the “Mixed Copper Ethanolamine Complex Mean % Weed Control” value [5, 7] was 0.0%, the “Mixed Copper Ethanolamine Complex Mean % Weed Control” value [5, 8] was 0.0% and the “Mixed Copper Ethanolamine Complex Mean % Weed Control” value [5, 9] was 0.0%.
